The source of these data is ChEMBL document CHEMBL1126189, “Synthesis and X-ray crystallographic analysis of quinazolinone cholecystokinin/gastrin receptor ligands” (J Med Chem, 1992).

By IC50 is commonly meant the concentration that inhibits the measured activity by half. The term inhibition denotes the share of the control response that was lost under treatment.

One test has as its target T1, Gastrin/cholecystokinin type B receptor (Mus musculus, UniProt P56481).
T1 sequence (P56481 whole entry): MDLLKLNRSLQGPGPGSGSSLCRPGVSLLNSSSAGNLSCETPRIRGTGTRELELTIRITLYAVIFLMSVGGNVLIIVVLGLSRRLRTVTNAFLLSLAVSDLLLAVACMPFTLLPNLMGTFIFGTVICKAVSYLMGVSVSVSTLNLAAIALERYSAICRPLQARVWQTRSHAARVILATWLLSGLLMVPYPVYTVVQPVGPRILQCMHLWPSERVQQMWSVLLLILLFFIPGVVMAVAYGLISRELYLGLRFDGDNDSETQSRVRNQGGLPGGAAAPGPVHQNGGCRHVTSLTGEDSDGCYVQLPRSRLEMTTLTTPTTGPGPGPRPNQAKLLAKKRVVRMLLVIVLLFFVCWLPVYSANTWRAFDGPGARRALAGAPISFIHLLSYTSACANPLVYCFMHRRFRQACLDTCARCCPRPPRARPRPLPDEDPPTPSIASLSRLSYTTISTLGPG
As to the kind of experiment: Evaluated for inhibition of [125I]CCK-8S binding to cholecystokinin CCK-B receptor from mouse brain membranes […] (in vitro).
Details: not given
In turn, `CC(C)Oc1cccc(-n2c(C(C)Cc3c[nH]c4ccccc34)nc3ccccc3c2=O)c1` (centres undefined) came in with a concentration for half-maximal inhibition (IC50) of 9100 nM.

As for `CC(C)Oc1cccc(-n2c(/C=C/c3c[nH]c4ccc(Br)cc34)nc3ccccc3c2=O)c1`, the half-inhibitory concentration (IC50) stood at 1400 nM.

For the molecule `CC(C)Oc1cccc(-n2c(/C=C/c3c[nH]c4ccccc34)nc3ccccc3c2=O)c1`, the IC50 was 430 nM.

Molecule `CC(C)Oc1cccc(-n2c(CC(C)c3c[nH]c4ccccc34)nc3ccccc3c2=O)c1` (centres undefined) displayed a half-inhibitory concentration (IC50) of 70 nM.

Another test has as its target T2, Gastrin/cholecystokinin type B receptor (Mus musculus) (UniProt P56481).
T2 sequence (whole entry): T1 sequence (P56481 whole entry)
As to the kind of experiment: Evaluated for inhibition of [125I]-CCK-8S binding to cholecystokinin CCK-B receptor from mouse brain membranes […] (in vitro). The note with it: 10 uM.
In turn, `O=c1c2ccccc2nc(CCCc2ccccc2)n1-c1ccccc1` displayed an inhibition of 21%.

Take `O=c1c2ccccc2nc(CCc2ccccc2)n1-c1ccccc1`: the inhibition was found to be 27%.

With `O=c1c2ccccc2nc(Cc2c[nH]c3ccccc23)n1-c1ccccc1`, the inhibition is 36%.

On to `O=c1c2ccccc2nc(CCCc2c[nH]c3ccccc23)n1-c1ccccc1`, for which the inhibition turned out to be 20%.

As for `O=c1c2ccccc2nc(Cc2ccccc2)n1-c1ccccc1`, the inhibition turned out to be 6%.
